Assay results published in patent publication US11542297B2, “Compositions and methods for treating CNS disorders” (Sage Therapeutics, Inc., priority 2014, dated 2023).

System: PTZ-treated mice
Test: Acute PTZ method (pentylenetetrazol-induced seizure assay)
Assay type: in vivo
Details: Mus musculus, lowest dose significantly affecting latency to tonic seizures in PTZ-treated mice, PO, read-out: Anticonvulsive Effect Dose
Method: The anticonvulsant effect of test compounds were assessed in a pentylenetetazol-induced seizure assay in mice similar to methods described in Giardina & Gasior (Curr Protoc Pharmacol. 2009). Male CD-1 mice were housed in groups of five under controlled conditions (temperature of 22±2° C. and 12:12 light-dark cycle, lights on at 8:00 am) and water and food were available ad libitum. The mice were housed for 1 week prior to behavioral testing, at which time they weighed 25-35 g. Pentylenetetrazol (PTZ, Sigma) was dissolved in sterile 0.9% saline at a concentration of 12 mg/mL concentration for subcutaneous administration. Test compounds were formulated and administered via oral gavage or intraperitoneal injection at a predetermined time-point (typically 30 or 60 minutes) prior to PTZ injection. […]
Mice were acclimated to the test room for at least 30 min before compound administration. […] Each mouse was continuously observed for 30 min and the following behaviors were recorded by observers blinded to the treatments: 1) latency to clonic convulsions that persist for 3 sec and followed by an absence of righting reflex 2) latency to tonic convulsions, characterized by the rigid extension of all four limbs that exceeded a 90 degree angle with the body 3) latency to death 4) number of clonic and tonic convulsions. […]

Structure (SMILES) | minimal effective dose [mg/kg]
Cc1nnn(CC(=O)[C@H]2CC[C@H]3[C@@H]4CC[C@@H]5C[C@](C)(O)CC[C@]5(C)[C@H]4CC[C@]23C)n1 [Compound 32] | ≤ 1
C[C@@]1(O)CC[C@@]2(C)[C@H](CC[C@@H]3[C@@H]2CC[C@]2(C)[C@@H](C(=O)Cn4ccc(C#N)n4)CC[C@@H]32)C1 [Compound 24] | 1 to 5
